ChEMBL document CHEMBL3352019, “Recent developments in biological activities of chalcones: a mini review” (Eur J Med Chem, 2014)
≈ marks a conversion by molar mass, not a printed value. Blank lines part the entries; values can stand above or below the compound they belong to.

What was measured:
MDA-MB-231 = assay: Anticancer activity against human MDA-MB-231 cells; type: functional, cell-based
Plasmodium falciparum [1] = assay: Antimalarial activity against Plasmodium falciparum asexual blood stage forms; type: functional, organism-based
Plasmodium falciparum [2] = assay: Antimalarial activity against Plasmodium falciparum K1; type: functional, organism-based
Klebsiella aerogenes = assay: Antimicrobial activity against Enterobacter aerogenes by cup-plate agar diffusion method; type: functional
Staphylococcus aureus [3] = assay: Antimicrobial activity against Staphylococcus aureus by cup-plate agar diffusion method; type: functional
Aspergillus niger [4] = assay: Antimicrobial activity against Aspergillus niger by cup-plate agar diffusion method; type: functional
Bacillus = assay: Antimicrobial activity against Bacillus coccus by cup-plate agar diffusion method; type: functional
Bacillus subtilis [5] = assay: Antimicrobial activity against Bacillus subtilis at 50 ug/mL; type: functional; conditions: read-out: IZ
Escherichia coli [6] = assay: Antimicrobial activity against Escherichia coli at 50 ug/mL; type: functional; conditions: read-out: IZ
Bacillus pumilus = assay: Antimicrobial activity against Bacillus pumilus at 50 ug/mL; type: functional; conditions: read-out: IZ
Aspergillus niger [7] = assay: Antimicrobial activity against Aspergillus niger at 50 ug/mL; type: functional; conditions: read-out: IZ
Penicillium chrysogenum = assay: Antimicrobial activity against Penicillium chrysogenum; type: functional
Bacillus subtilis [8] = assay: Antimicrobial activity against Bacillus subtilis; type: functional
Candida albicans = assay: Antimicrobial activity against Candida albicans; type: functional
Escherichia coli [9] = assay: Antimicrobial activity against Escherichia coli; type: functional
Rattus norvegicus [10] = assay: Inhibition of inflammation in rat carrageenan-induced rat hind paw edema model; type: functional
Rattus norvegicus [11] = assay: Inhibition of inflammation in rat carrageenan-induced rat acute paw edema model; type: functional
Leishmania major = assay: Antiprotozoal activity against Leishmania major promastigote forms; type: functional, organism-based
[12] = Antioxidant activity assessed as […] free radical scavenging activity; type: physicochemical
Micrococcus luteus = assay: Antimicrobial activity against Micrococcus luteus; type: functional
[13] = system: Staphylococcus epidermidis; assay: Antimicrobial activity against Staphylococcus epidermidis; type: functional
Plasmodium falciparum [14] = assay: Antimalarial activity against CQ-resistant Plasmodium falciparum W2; type: functional, organism-based
Rattus norvegicus [15] = species: Rattus norvegicus; assay: Inhibition of inflammation in rat cotton pellet-induced granuloma model; type: functional
[16] = Anticancer activity against human HSC3 cells; type: functional, cell-based; conditions: HSC-3
Staphylococcus aureus [17] = assay: Antimicrobial activity against Staphylococcus aureus; type: functional

IC50 (MDA-MB-231): 7.02 µM
Compound: O=C(/C=C/c1cccc(Br)c1)C1=Cc2cc(Cl)ccc2OC1

Compound: COc1ccc(/C=C/C(=O)c2ccc(-n3cnc4ccccc43)cc2)c(OC)c1
IC50 (Plasmodium falciparum [1]): 1.1 µg/mL (≈ 2.86 µM)

IC50 (Plasmodium falciparum [2]): 7.4 µM
Compound: COc1ccc(/C=C/C(=O)c2c(O)cccc2O)cc1

Compound: COc1ccc(C(=O)/C=C/c2c(-c3ccc(Br)cc3)nc3ccccn23)cc1
inhibition zone (IZ) (Klebsiella aerogenes): 19 mm

Compound: O=C(/C=C/c1c(-c2ccc(Br)cc2)nc2ccccn12)c1ccc(Cl)cc1
inhibition zone (IZ) (Staphylococcus aureus [3]): 19 mm

Compound: Cc1ccc(C(=O)/C=C/c2c(-c3ccc(Br)cc3)nc3ccccn23)c(O)c1
inhibition zone (IZ) (Aspergillus niger [4]): 20 mm | inhibition zone (IZ) (Bacillus): 19 mm

Compound: COc1ccc(/C=C/C(=O)c2ccc(Cl)cc2Cl)cc1
zone of inhibition at 50 µg/mL (Bacillus subtilis [5]): 13 mm | zone of inhibition at 50 µg/mL (Escherichia coli [6]): 15 mm | zone of inhibition at 50 µg/mL (Bacillus pumilus): 8 mm

Compound: O=C(/C=C/c1cccc2ccccc12)c1ccc(Cl)cc1Cl
zone of inhibition at 50 µg/mL (Aspergillus niger [7]): 12 mm

Compound: C[C@]12CC[C@H]3[C@@H](CC=C4CC(O)CC[C@@]43C)[C@@H]1CC[C@@H]2C(=O)/C=C/c1ccccc1 (some centres undefined)
inhibition zone (IZ) (Penicillium chrysogenum): 10 mm | inhibition zone (IZ) (Bacillus subtilis [8]): 19 mm

Compound: O=C(/C=C/c1ccccc1)N1N=C(c2ccc(Cl)cc2)CC1c1c2ccccc2cc2ccccc12 (centres undefined)
inhibition zone (IZ) (Candida albicans): 12 mm | inhibition zone (IZ) (Escherichia coli [9]): 22 mm

Compound: O=C(/C=C/c1ccccc1)c1nn(-c2ccccc2)c(-c2ccccc2)c1S(=O)(=O)c1ccccc1
inhibition (INH) (Rattus norvegicus [10]): 83.77%

Compound: Cc1nc2ccc(Cl)cc2c(-c2ccccc2)c1C(=O)/C=C/c1ccco1
inhibition (INH) (Rattus norvegicus [11]): 81.78%

IC50 (Leishmania major; Leishmania major): < 1 µM
Compound: COc1ccc2c(c1)C=C(C(=O)/C=C/c1ccc(Cl)c(Cl)c1)CO2

IC50 (Leishmania major; Leishmania major): < 1 µM
Compound: COc1ccc2c(c1)C=C(/C=C/C(=O)c1ccc(Cl)c(Cl)c1)CO2

inhibition (INH) [12]: 89.64%
Compound: C=CCc1ccc(/C=C/C(=O)c2cc(C)ccc2O)cc1O

MIC (Micrococcus luteus): 2000 µg/mL (≈ 5670 µM) | MIC (Bacillus subtilis [8]; Bacillus subtilis): 2000 µg/mL (≈ 5670 µM) | MIC [13]: 2000 µg/mL (≈ 5670 µM)
Compound: COc1ccc(/C=C/C(=O)c2ccc(OC)c(CC=C(C)C)c2O)cc1

Compound: COc1ccc(/C=C/C(=O)c2ccccc2)cc1S(=O)(=O)N1CCOCC1
IC50 (Plasmodium falciparum [14]): 2.06 µM

Compound: O=C(/C=C/c1ccc(F)cc1)c1ccc(O)cc1
inhibition (INH) (Rattus norvegicus [15]): 36.8%

IC50 [16]: 4.9 µg/mL (≈ 17.2 µM)
Compound: COc1cc(O)c(C(=O)/C=C/c2ccccc2)c(OC)c1 [FLAVOKAWAIN B]

MIC (Staphylococcus aureus [17]): 15.6 µg/mL (≈ 60.9 µM)
Compound: O=C(/C=C/c1ccc(O)cc1)c1ccc(O)cc1O [ISOLIQUIRITIGENIN]

Compound: C=CC(C)(C)c1cc(/C=C/C(=O)c2ccc(O)cc2)c(OC)cc1O [LICOAGROCHACONE A]
IC50 (Plasmodium falciparum [1]): 1.43 µg/mL (≈ 4.23 µM)

Compound: MEGLUMINE ANTIMONATE
IC50 (Leishmania major): < 82 µM
